In patent publication US5804601A, “Aromatic hydroxamic acid compounds, their production and use” (Takeda Chemical Industries, Ltd., priority 1995, dated 1998):

Columns and labels:
[1] = system: rat mixed cerebral cell culture; assay: Neutralizing effect on LPS-induced cytotoxicity in a rat mixed cerebral cell culture system (LIC assay), MTT method; type: cell-based; details: concentration giving a recovery rate of 50%, usually 4-5 days incubation, read-out: ED50 (the source's name)
Method: Neutralizing effect on lipopolysaccharide (LPS)--induced cytotoxicity in a rat mixed cerebral cell culture system (LIC assay)
LPS, a substance known to activate glial cells (astrocytes, microglia), was added to a rat mixed cerebral cell culture system and the compounds which would neutralize the cytotoxicity induced by LPS were screened by the following method.
(1) Neonatal rat mixed cerebral cell culture
From neonatal Crj:CD (SD) rats (1-3 days old, Charles-River Japan, Ltd.), the brains were isolated and placed in ice-cold D-MEM/10% FCS (Dulbecco's cell culture minimal essential medium supplemented with 10% of fetal calf serum, 100 units/ml of penicillin and 100 μg/ml of streptomycin). Then, mixed cerebral cell cultures were carried out in the following steps.
1. The cerebrums were separated from the enucleated brains and the meninges was removed under the stereoscopic microscope.
2. The cerebrums were placed in a nylon-mesh (100-200 μm) bag to filter with the aid of a rubber policeman.
3. Using ice-cold D-MEM/10% FCS, the cells were washed 3 times (1000 rpm, 8 min.). Then, this cell suspension was filtered through a cell strainer (40 μm mesh, Falcon 2340) and the number of viable cells was counted by the trypan blue method.
4. The cells, were seeded in wells of a 96-well microtiter plate (Nunc) at a cell density of 1×10^5 cells/100 μl/well, and started a cell culture at 37° C.
5. One week later, 100 μl/well of D-MEM/10% FCS was added.
6. The plate was further incubated for about 1-2 weeks and the neutralizing activity of the test compound was evaluated by the following method.
(2) Evaluation of neutralizing activity in LPS-induced cytotoxicity
1. Following the rat mixed cerebral cell culture described in (1) (after 2-3 weeks of incubation), the medium was discarded from the respective wells of the 96-well microtiter plate, and 50 μl/well of fresh D-MEM/2% FCS was added.
2. A test sample and LPS (Difco, E. coli 011: B4, Bacto) of a suitable concentration, 25 μl each per well, were respectively added. D-MEM/2% FCS was used as the medium.
As the test sample, each of the compounds shown in Table 32 was dissolved in DMSO at a concentration of 10 ^-2 M and the solution was diluted with D-MEM/2% FCS and submitted for assay.
3. After a suitable period (usually 4-5 days) of incubation, the degree of cytotoxic effect was assessed by the microscopic observation, and MTT method.
(3) MTT [3-(4,5-dimethylthiazol-2-yl)-2,5-diphenyltetra zolium bromide] method
Ten μl of MTT solution (5 mg/ml, Sigma) dissolved in phosphate-buffered saline was added to each well. After 4-6 hours of incubation (37° C., under 10% CO2), 100 μl/well of 0.01N-hydrochloric acid containing 10% SDS was added, whereby the formed formazan was dissolved. After complete dissolution, the absorbance (540-590 nm) was measured for each well.
The ED50 values were determined by calculating the recovery rates by means of the following equation and plotting the concentrations of compounds giving a recovery rate of 50% on graph paper.
Recovery rate (%)=(C-B)×100/(A-B)
[A: the absorbance at 550 nm of the control well to which only the medium had been added
B: the absorbance at 550 nm of the well to which LPS had been added
C: the absorbance at 550 nm of the well to which both LPS and the test compound had been added]

TNFα = assay: LPS-induced TNFα production in the rat mixed cerebral cell culture system (ELISA); type: cell-based; details: LPS 10 μg/ml, 24 hours
Method: Rat mixed cerebral cell cultures on day 15 after starting cell cultures were used. After removal of the medium, LPS (E. coli 011: B4, Bacto) (Difco Laboratories), 10 μg/ml, and Compound A, 10^-6 or 10^-7 M, were simultaneously added and the final volume was adjusted to 100 μl. After 24 hours of incubation at 37° C., the culture supernatant was collected as a sample for ELISA. The assay for determining TNFα amount was made using Mouse TNFα ELISA Kit (Genzyme) in accordance with its assay protocol.

[2] = system: NO (nitric oxide) production; assay: Inhibitory effect on LSP-induced NO (nitric oxide) production in a rat mixed cerebral cell culture system; type: cell-based; details: 120 h, LSP 5 μg/ml, 5 days, combined NO3^- and NO2^- in culture supernatant, read-out: inhibition concentration (IC50) against LSP-induced NO production
Method: Inhibitory effect on LSP-induced NO (nitric oxide) production in a rat mixed cerebral cell culture system
(1) Rat mixed cerebral cell culture
Rat mixed cerebral cell cultures were prepared by the procedure described in Experimental Example 1.
1. Twenty (20) days after initiation of rat mixed cerebral cell culture, the medium was removed from each well of the 96-well microtiter plate and, instead, 125 μl/well of D-MEM/2% FCS containing 5 μg/ml (final concentration) of LSP (Difco, E. coli 011: B4, Bacto) and a suitable dilution of the test compound was added. As the test sample, a stock DMSO solution of 10^-2 M concentration was prepared and diluted with D-MEM/2% FCS.
2. After a further 5 days of cell culture, the combined amount of NO3^- and NO2^- in the culture supernatant was determined with the NO3^- NO2^- Assay Kit (Cayman Chemical, Catalog No. 780001, U.S.A.). The assays were carried out in accordance with the accompanying protocol.
The IC50 values were determined from a plot of the concentrations of the test compound which caused a 50% decrease in the combined amount of […] and NO3^- in the culture supernatant as compared with the well to which LSP alone had been added in a final concentration of 5 μg/ml without addition of compound A.

[3] = system: apomorphine-induced circling in rats pretreated with LPS infused into the unilateral striatum; assay: Inhibitory effect on the apomorphine-induced circling in rats pretreated with LPS infused into the unilateral striatum; type: in vivo, rat; details: for Number of ipsilateral circlings (mean ± S.E.): 3 times, LPS 5 μg, apomorphine 1 mg/kg s.c., 30-minute period, n=4
Method: Inhibitory effect on the apomorphine-induced circling in rats pretreated with LPS infused into the unilateral striatum Male Wistar rats (8-9 weeks old) weighing 250-280 g at the operation for LPS infusion were submitted to the experiment. Throughout the experimental period, the animals were group-fed in a vivarium controlled at 24±1° C. and 55±1% R.H., with a light-dark cycle of 12 hr (7:00-19:00 ON) and free access to food (Clea Japan, Inc., CE-2 pellets) and water (tap water). Under pentobarbital (50 mg/kg, i.p.) anesthesia, the rat's head was immobilized in David Kopf's brain stereotaxic apparatus for small animal use and with reference to Pellegrino & Cushman's brain atlas, a 30 G stainless steel needle was indwelled in the unilateral striate body (A8.2, L2.8, H4.3). The infusion amount of LPS was set at 5 μg. LPS was dissolved in 1 μl of phosphate-buffered saline (PBS, pH 7.2) and the solution was infused gradually at a speed of 0.2 μl/min. The infusion needle was kept in position till 3 minutes following infusion and withdrawn only after sufficient diffusion of the drug solution had taken place. After 7-8 days postoperatively, 1 mg/kg of apomorphine was administered subcutaneously and the number of induced circling behavior during a 30-minute period immediately following administration were determined with an automatic counter. Compound A was suspended in 5% aqueous gum arabic solution and the suspension was administered either orally or intraperitoneally at a dose rate of 0.2 ml per 100 g rat body weight. This administration was carried out 3 times, namely 30 minutes before infusion of 5 μg LPS and 3 and 24 hours after the infusion. As a control, physiological saline solution alone was administered intraperitoneally.

| SMILES | EC50 [1] [nM] | other results |
| --- | --- | --- |
| CC1=C(C)C(=O)C(C(CCCCCC(=O)NOC(=O)C(C)(C)C)c2ccccc2)=C(C)C1=O (centres unmarked) [Compound 7-17, O-pivaloyl-7-(3,5,6-trimethylbenzoquinon-2-yl)-7-phenylheptanohydroxamic acid] | 200 | – |
| COc1ccc(C(CCCCC(=O)NO)C2=C(C)C(=O)c3ccccc3C2=O)cc1 (centres unmarked) [Compound A, 6-(3-Methyl-1,4-naphthoquinon-2-yl)-6-(4-methoxyphenyl)hexanohydroxamic acid] | 20 | TNFα (TNFα; Compound A 10^-6 M): 230 pg/mL; TNFα (TNFα; Compound A 10^-7 M): 790 pg/mL; IC50 [2]: 80 nM; Number of ipsilateral circlings (mean ± S.E.) ([3]; i.p. (3 mg/kg)): 44 ± 15; Number of ipsilateral circlings (mean ± S.E.) ([3]; p.o. (30 mg/kg)): 65 ± 21; LPS-induced injury of the unilateral striatum (in words) ([3]; rat, in vivo): significantly attenuated |
| CC1=C(C(CCCCC(=O)NO)c2ccc(F)cc2)C(=O)c2ccccc2C1=O (centres unmarked) [Compound B, 6-(4-Fluorophenyl)-6-(3-methyl-1,4-naphtho-quinon-2-yl)hexanohydroxamic acid] | 500 | – |
| CC1=C(C)C(=O)C(C(CCCCCC(=O)NO)c2ccccc2)=C(C)C1=O (centres unmarked) [Compound C, 7-(3,5,6-Trimethyl-1,4-benzoquinon-2-yl)-7-phenylheptanohydroxamic acid] | 300 | – |
| CC1=C(C)C(=O)C(C(CCCCCC(=O)NO)c2ccc(C)cc2)=C(C)C1=O (centres unmarked) [Compound D, 7-(3,5,6-Trimethyl-1,4-benzoquinon-2-yl)-7-(4-methylphenyl)heptanohydroxamic acid] | 100 | – |
| CC1=C(C)C(=O)C(C(CCCCCC(=O)NO)c2ccc(F)cc2)=C(C)C1=O (centres unmarked) [Compound E, 7-(4-Fluorophenyl)-7-(3,5,6-trimethyl-1,4-benzoquinon-2-yl)heptanohydroxamic acid] | 600 | – |
| O=C(CCCCCC(c1ccccc1)c1ccc2ccccc2c1O)NO (centres unmarked) [Reference Example 46-1, 7-(1-Hydroxy-2-naphthyl)-7-phenylheptanohydroxamic acid] | 50 | – |
| O=C(CCCCCc1ccc2ccccc2c1O)NO [Reference Example 46-2, 6-(1-Hydroxy-2-naphthyl)hexanohydroxamic acid] | 500 | – |
